{"source": "patent US4345938A", "about": "“Herbicidal 2-haloacetanilides” (Monsanto Company, priority 1980, dated 1982)", "type_in_all_cases": "in vivo", "key": {"[1]": {"tested_on": "Eleocharis kuroguwai", "assay": "Field transplant rice test, applied 9 DAT, EK", "conditions": "for inhibition at 375 g/ha / inhibition at 750 g/ha / inhibition at 1500 g/ha / inhibition at 3000 g/ha: Eleocharis kuroguwai, 216 h, read-out: Percent Inhibition, EK; for inhibition at 375 g/ha: 0.375 Kg/Ha; for inhibition at 750 g/ha: 0.75 Kg/Ha; for inhibition at 1500 g/ha: 1.5 Kg/Ha; for inhibition at 3000 g/ha: 3.0 Kg/Ha", "description": "(§1) In the discussion of data below, occasional reference is made to herbicide application rates symbolized as \"GR15 \" and \"GR85 \"; these rates are given in kilograms per hectare (kg/ha) which are convertible into pounds per acre (lbs/A) by dividing the kg/ha rate by 1.12.\n(§2) A further guide to the effectiveness of a chemical as a selective herbicide is the \"selectivity factor\" (\"SF\") for a herbicide in given crops and weeds. The selectivity factor is a measure of the relative degree of crop safety and weed injury and is expressed in terms of the GR15 /GR85 ratio, i.e., the GR15 rate for the crop divided by the GR85 rate for the weed, both rates in kg/ha (lb/A.)\n(§3) The test data in Table III for all compounds was obtained under identical test conditions. The weeds used in the tests herein have the following abbreviations in the tables: Echinochloa crus-galli (EC), Monochloria vaginalis (MV), Cyperus Serotinus (CS), Eleocharis Kuroguwai (EK) and Sagittaria trifolia (ST).\n(§4) In further comparative tests, a preferred compound of this invention (Example 1) was tested in the field with prior art Compounds A-D. These tests were conducted under conditions reflecting herbicide application times generally favorable to all herbicides in the test. The timing of application of herbicides to transplant rice is very important, whether, as in some instances, prior to transplanting the rice; in other instances, at the time of transplanting or else after transplanting. Application times are conventionally referred to as \"days before transplant\" (DBT) or \"days after transplant\" (\"DAT\"). The field test data in Table IV was obtained from a test in which the herbicides were applied at the time of transplant, i.e., \"0 DAT\", with observations being made weekly up to six weeks after transplant (\"WAT\") beginning at two weeks after transplant; for illustrative and representative purposes, only the early, middle and late period observations, i.e., 2 WAT, 4 WAT and 6 WAT, are shown in Table IV. The data in Table IV is for rates of application common to all herbicides in the test, i.e., from 3.0 kg/ha (2.67 lb/A) down to 0.375 kg/ha (0.34 lb/A). All herbicides were applied at their actual or expected use rates, i.e., as granules containing 2.5% by weight herbicide for the compound of Example 1, Compounds B, C and D and 5.0% by weight for Compound A.\n(§5) In Table V are presented field data showing the relative performance of the compound of Example 1 and Compounds A-D applied 9 DAT, with observations being made weekly from 3 WAT to 7 WAT; again, for illustrative and representative purposes, only the early, middle and late period observations are reported in Table V, the herbicide rates and concentrations of active ingredients the same as is shown in Table IV."}, "[2]": {"tested_on": "Monochoria vaginalis", "assay": "Field transplant rice test, applied 9 DAT, MV", "conditions": "for inhibition at 375 g/ha / inhibition at 750 g/ha / inhibition at 1500 g/ha / inhibition at 3000 g/ha: Pontederia vaginalis, 216 h, read-out: Percent Inhibition, MV; for inhibition at 375 g/ha: 0.375 Kg/Ha; for inhibition at 750 g/ha: 0.75 Kg/Ha; for inhibition at 1500 g/ha: 1.5 Kg/Ha; for inhibition at 3000 g/ha: 3.0 Kg/Ha", "description": "as §1, §2, §3, §4, §5"}, "[3]": {"tested_on": "Monochoria vaginalis", "assay": "Field transplant rice test, applied 0 DAT, MV", "conditions": "Pontederia vaginalis, 0 h, read-out: Percent Inhibition, MV; for inhibition at 375 g/ha: 0.375 Kg/Ha; for inhibition at 750 g/ha: 0.75 Kg/Ha; for inhibition at 1500 g/ha: 1.5 Kg/Ha; for inhibition at 3000 g/ha: 3.0 Kg/Ha", "experimental": "as §3, §4"}, "[4]": {"tested_on": "Sagittaria trifolia", "assay": "Field transplant rice test, applied 9 DAT, ST", "conditions": "216 h, read-out: Percent Inhibition, ST; for inhibition at 375 g/ha: 0.375 Kg/Ha; for inhibition at 750 g/ha: 0.75 Kg/Ha; for inhibition at 1500 g/ha: 1.5 Kg/Ha; for inhibition at 3000 g/ha: 3.0 Kg/Ha", "experimental": "as §3, §4, §5"}, "[5]": {"tested_on": "Echinochloa crus-galli", "assay": "Field transplant rice test, applied 9 DAT, EC", "conditions": "for inhibition at 375 g/ha / inhibition at 750 g/ha / inhibition at 1500 g/ha / inhibition at 3000 g/ha: Echinochloa crus-galli, 216 h, read-out: Percent Inhibition, EC; for inhibition at 375 g/ha: 0.375 Kg/Ha; for inhibition at 750 g/ha: 0.75 Kg/Ha; for inhibition at 1500 g/ha: 1.5 Kg/Ha; for inhibition at 3000 g/ha: 3.0 Kg/Ha", "description": "as §1, §2, §3, §4, §5"}}, "note": "Where two headings read alike, the source gives them in different places.", "data": [{"smiles": "CCCCOCCN(C(=O)CCl)c1c(CC)cccc1CC", "note": "[Compound B, 2',6'-diethyl-N-(n-butoxyethyl)-2-chloroacetanilide]", "values": [{"measurement": "selectivity factor (GR15/GR85), EK in transplant rice", "setting": "[1]; 3 WAT", "value": "non-selective"}, {"measurement": "inhibition at 375 g/ha", "setting": "[1]; 3 WAT", "value": 27, "unit": "%"}, {"measurement": "inhibition at 375 g/ha", "setting": "[1]; 5 WAT", "value": 3, "unit": "%"}, {"measurement": "inhibition at 375 g/ha", "setting": "[1]; 7 WAT", "value": 0, "unit": "%"}, {"measurement": "inhibition at 750 g/ha", "setting": "[1]; 3 WAT", "value": 28, "unit": "%"}, {"measurement": "inhibition at 750 g/ha", "setting": "[1]; 5 WAT", "value": 5, "unit": "%"}, {"measurement": "inhibition at 750 g/ha", "setting": "[1]; 7 WAT", "value": 0, "unit": "%"}, {"measurement": "inhibition at 1500 g/ha", "setting": "[1]; 3 WAT", "value": 42, "unit": "%"}, {"measurement": "inhibition at 1500 g/ha", "setting": "[1]; 5 WAT", "value": 32, "unit": "%"}, {"measurement": "inhibition at 1500 g/ha", "setting": "[1]; 7 WAT", "value": 0, "unit": "%"}, {"measurement": "inhibition at 3000 g/ha", "setting": "[1]; 3 WAT", "value": 55, "unit": "%"}, {"measurement": "inhibition at 3000 g/ha", "setting": "[1]; 5 WAT", "value": 43, "unit": "%"}, {"measurement": "inhibition at 3000 g/ha", "setting": "[1]; 7 WAT", "value": 18, "unit": "%"}, {"measurement": "inhibition at 375 g/ha", "setting": "[2]; 3 WAT", "value": 100, "unit": "%"}, {"measurement": "inhibition at 375 g/ha", "setting": "[2]; 5 WAT", "value": 95, "unit": "%"}, {"measurement": "inhibition at 375 g/ha", "setting": "[2]; 7 WAT", "value": 77, "unit": "%"}, {"measurement": "inhibition at 750 g/ha", "setting": "[2]; 3 WAT", "value": 97, "unit": "%"}, {"measurement": "inhibition at 750 g/ha", "setting": "[2]; 5 WAT", "value": 98, "unit": "%"}, {"measurement": "inhibition at 750 g/ha", "setting": "[2]; 7 WAT", "value": 88, "unit": "%"}, {"measurement": "inhibition at 1500 g/ha", "setting": "[2]; 3 WAT", "value": 98, "unit": "%"}, {"measurement": "inhibition at 1500 g/ha", "setting": "[2]; 5 WAT", "value": 100, "unit": "%"}, {"measurement": "inhibition at 1500 g/ha", "setting": "[2]; 7 WAT", "value": 100, "unit": "%"}, {"measurement": "inhibition at 3000 g/ha", "setting": "[2]; 3 WAT", "value": 100, "unit": "%"}, {"measurement": "inhibition at 3000 g/ha", "setting": "[2]; 5 WAT", "value": 100, "unit": "%"}, {"measurement": "inhibition at 3000 g/ha", "setting": "[2]; 7 WAT", "value": 97, "unit": "%"}, {"measurement": "selectivity factor (GR15/GR85), MV in transplant rice", "setting": "[2]; between 3 WAT and 7 WAT", "value": 8}, {"measurement": "inhibition at 375 g/ha", "setting": "[3]; 2 WAT", "value": 97, "unit": "%"}, {"measurement": "inhibition at 375 g/ha", "setting": "[3]; 4 WAT", "value": 90, "unit": "%"}, {"measurement": "inhibition at 375 g/ha", "setting": "[3]; 6 WAT", "value": 80, "unit": "%"}, {"measurement": "inhibition at 750 g/ha", "setting": "[3]; 2 WAT", "value": 95, "unit": "%"}, {"measurement": "inhibition at 750 g/ha", "setting": "[3]; 4 WAT", "value": 98, "unit": "%"}, {"measurement": "inhibition at 750 g/ha", "setting": "[3]; 6 WAT", "value": 100, "unit": "%"}, {"measurement": "inhibition at 1500 g/ha", "setting": "[3]; 2 WAT", "value": 98, "unit": "%"}, {"measurement": "inhibition at 1500 g/ha", "setting": "[3]; 4 WAT", "value": 100, "unit": "%"}, {"measurement": "inhibition at 1500 g/ha", "setting": "[3]; 6 WAT", "value": 100, "unit": "%"}, {"measurement": "inhibition at 3000 g/ha", "setting": "[3]; 2 WAT", "value": 100, "unit": "%"}, {"measurement": "inhibition at 3000 g/ha", "setting": "[3]; 4 WAT", "value": 100, "unit": "%"}, {"measurement": "inhibition at 3000 g/ha", "setting": "[3]; 6 WAT", "value": 97, "unit": "%"}, {"measurement": "inhibition at 375 g/ha", "setting": "[4]; 3 WAT", "value": 5, "unit": "%"}, {"measurement": "inhibition at 375 g/ha", "setting": "[4]; 5 WAT", "value": 2, "unit": "%"}, {"measurement": "inhibition at 375 g/ha", "setting": "[4]; 7 WAT", "value": 5, "unit": "%"}, {"measurement": "inhibition at 750 g/ha", "setting": "[4]; 3 WAT", "value": 38, "unit": "%"}, {"measurement": "inhibition at 750 g/ha", "setting": "[4]; 5 WAT", "value": 12, "unit": "%"}, {"measurement": "inhibition at 750 g/ha", "setting": "[4]; 7 WAT", "value": 10, "unit": "%"}, {"measurement": "inhibition at 1500 g/ha", "setting": "[4]; 3 WAT", "value": 40, "unit": "%"}, {"measurement": "inhibition at 1500 g/ha", "setting": "[4]; 5 WAT", "value": 25, "unit": "%"}, {"measurement": "inhibition at 1500 g/ha", "setting": "[4]; 7 WAT", "value": 13, "unit": "%"}, {"measurement": "inhibition at 3000 g/ha", "setting": "[4]; 3 WAT", "value": 42, "unit": "%"}, {"measurement": "inhibition at 3000 g/ha", "setting": "[4]; 5 WAT", "value": 25, "unit": "%"}, {"measurement": "inhibition at 3000 g/ha", "setting": "[4]; 7 WAT", "value": 12, "unit": "%"}, {"measurement": "inhibition at 375 g/ha", "setting": "[5]; 3 WAT", "value": 57, "unit": "%"}, {"measurement": "inhibition at 375 g/ha", "setting": "[5]; 5 WAT", "value": 55, "unit": "%"}, {"measurement": "inhibition at 375 g/ha", "setting": "[5]; 7 WAT", "value": 47, "unit": "%"}, {"measurement": "inhibition at 750 g/ha", "setting": "[5]; 3 WAT", "value": 68, "unit": "%"}, {"measurement": "inhibition at 750 g/ha", "setting": "[5]; 5 WAT", "value": 53, "unit": "%"}, {"measurement": "inhibition at 750 g/ha", "setting": "[5]; 7 WAT", "value": 50, "unit": "%"}, {"measurement": "inhibition at 1500 g/ha", "setting": "[5]; 3 WAT", "value": 90, "unit": "%"}, {"measurement": "inhibition at 1500 g/ha", "setting": "[5]; 5 WAT", "value": 80, "unit": "%"}, {"measurement": "inhibition at 1500 g/ha", "setting": "[5]; 7 WAT", "value": 85, "unit": "%"}, {"measurement": "inhibition at 3000 g/ha", "setting": "[5]; 3 WAT", "value": 95, "unit": "%"}, {"measurement": "inhibition at 3000 g/ha", "setting": "[5]; 5 WAT", "value": 95, "unit": "%"}, {"measurement": "inhibition at 3000 g/ha", "setting": "[5]; 7 WAT", "value": 92, "unit": "%"}, {"measurement": "selectivity factor (GR15/GR85), EC in transplant rice", "setting": "[5]; between 3 WAT and 7 WAT", "value": 2}]}]}
